Experimental data from PubChem BioAssay AID248 (DTP/NCI, 2004).
“And” between values parts separate entries of the source, which are not always exact repeats. Equal values may be shown once. Inconclusive results and toxic doses are left out. No stated cut-off is given here; in the data, active means T/C of 150% or more; inactive means T/C below 125%.

Test system: L1210 leukemia ip in BDF1 mice, survival T/C
Test: NCI In Vivo Anticancer Drug Screen. Data for tumor model L1210 Leukemia (intraperitoneal) in B6D2F1 (BDF1) mice
Settings: endpoint: mean survival time, higher = longer survival
In short: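 In this screen, tumor-bearing mice given compound are compared to those given vehicle, and their survival values are reported as a treated-to-control quotient.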

[1] = dose: 100.0 mg/kg/injection, schedule: Q01DX001 (ip), vehicle: carboxymethylcellulose (CMC)
[2] = dose: 200.0 mg/kg/injection, schedule: Q01DX001 (ip), vehicle: carboxymethylcellulose (CMC)
[3] = dose: 400.0 mg/kg/injection, schedule: Q01DX001 (ip), vehicle: carboxymethylcellulose (CMC)
[4] = dose: 100.0 mg/kg/injection, schedule: Q01DX001 (sc), vehicle: steriod suspending solution
[5] = dose: 200.0 mg/kg/injection, schedule: Q01DX001 (sc), vehicle: steriod suspending solution
[6] = dose: 400.0 mg/kg/injection, schedule: Q01DX001 (sc), vehicle: steriod suspending solution
[7] = dose: 25.0 mg/kg/injection, schedule: Q04DX002 (ip), vehicle: saline
[8] = dose: 50.0 mg/kg/injection, schedule: Q01DX001 (ip), vehicle: saline
[9] = dose: 50.0 mg/kg/injection, schedule: Q01DX009 (ip), vehicle: saline
[10] = dose: 100.0 mg/kg/injection, schedule: Q01DX001 (ip), vehicle: saline
[11] = dose: 100.0 mg/kg/injection, schedule: Q04DX003 (ip), vehicle: saline
[12] = dose: 200.0 mg/kg/injection, schedule: Q01DX001 (ip), vehicle: saline
[13] = dose: 400.0 mg/kg/injection, schedule: Q01DX001 (ip), vehicle: saline
[14] = dose: 100.0 mg/kg/injection, schedule: Q01DX009 (ip), vehicle: Klucel (hydroxypropylcellulose) (HPC)
[15] = dose: 100.0 mg/kg/injection, schedule: Q04DX003 (ip), vehicle: Klucel (hydroxypropylcellulose) (HPC)
[16] = dose: 200.0 mg/kg/injection, schedule: Q01DX009 (ip), vehicle: Klucel (hydroxypropylcellulose) (HPC)
[17] = dose: 200.0 mg/kg/injection, schedule: Q04DX003 (ip), vehicle: Klucel (hydroxypropylcellulose) (HPC)
[18] = dose: 100.0 mg/kg/injection, schedule: Q01DX009 (ip), vehicle: saline with Tween-80
[19] = dose: 200.0 mg/kg/injection, schedule: Q01DX009 (ip), vehicle: saline with Tween-80
[20] = dose: 10.0 mg/kg/injection, schedule: Q01DX001 (ip), vehicle: saline
[21] = dose: 20.0 mg/kg/injection, schedule: Q01DX001 (ip), vehicle: saline
[22] = dose: 200.0 mg/kg/injection, schedule: Q04DX003 (ip), vehicle: saline
[23] = dose: 400.0 mg/kg/injection, schedule: Q04DX003 (ip), vehicle: Klucel (hydroxypropylcellulose) (HPC)

Measured: T/C

CCCCCCCCCCCCCCCC(=O)N(CC)CC
inactive: [1] 104 % of control | dose: 100.0 mg/kg/injection, schedule: Q01DX009 (ip), vehicle: carboxymethylcellulose (CMC) 98 % of control and 104 % of control | dose: 100.0 mg/kg/injection, schedule: Q04DX003 (ip), vehicle: carboxymethylcellulose (CMC) 96 % of control | [2] 96 % of control | dose: 200.0 mg/kg/injection, schedule: Q01DX009 (ip), vehicle: carboxymethylcellulose (CMC) 96 % of control and 102 % of control | dose: 200.0 mg/kg/injection, schedule: Q04DX003 (ip), vehicle: carboxymethylcellulose (CMC) 92 % of control | [3] 95 % of control | dose: 400.0 mg/kg/injection, schedule: Q01DX009 (ip), vehicle: carboxymethylcellulose (CMC) 96 % of control and 89 % of control | dose: 400.0 mg/kg/injection, schedule: Q04DX003 (ip), vehicle: carboxymethylcellulose (CMC) 94 % of control

CC12CC(O)C3C(CCC4CC(O)CCC43C)C1CCC2C(=O)CO (stereo unspecified)
inactive: [4] 102 % of control | [5] 104 % of control | [6] 102 % of control

C#CC[N+](CC)(CC)CC
inactive: dose: 25.0 mg/kg/injection, schedule: Q01DX001 (ip), vehicle: saline 100 % of control | dose: 25.0 mg/kg/injection, schedule: Q01DX009 (ip), vehicle: saline 106 % of control and 89 % of control | [7] 95 % of control and 97 % of control | dose: 25.0 mg/kg/injection, schedule: Q04DX003 (ip), vehicle: saline 99 % of control | [8] 100 % of control | [9] 98 % of control and 106 % of control | dose: 50.0 mg/kg/injection, schedule: Q04DX002 (ip), vehicle: saline 107 % of control and 122 % of control | dose: 50.0 mg/kg/injection, schedule: Q04DX003 (ip), vehicle: saline 102 % of control | [10] 105 % of control and 110 % of control | [11] 103 % of control

CCOC(=O)C(C)(c1[nH]c2ccccc2c1C)c1[nH]c2ccccc2c1C
inactive: [8] 103 % of control | [10] 103 % of control | [12] 95 % of control | [13] 89 % of control

Nc1cc(=O)[nH]c(C(F)(F)F)n1
inactive: dose: 29.0 mg/kg/injection, schedule: Q01DX Z (ip), vehicle: saline 119 % of control | dose: 45.0 mg/kg/injection, schedule: Q01DX Z (ip), vehicle: saline 98 % of control | dose: 67.0 mg/kg/injection, schedule: Q01DX Z (ip), vehicle: saline 106 % of control | dose: 100.0 mg/kg/injection, schedule: Q01DX Z (ip), vehicle: saline 104 % of control

CC1=NCCCN=C(C)C(C)=NCCCN=C1C.[Br][Co][Br]
inactive: dose: 25.0 mg/kg/injection, schedule: Q01DX009 (ip), vehicle: Klucel (hydroxypropylcellulose) (HPC) 100 % of control | dose: 50.0 mg/kg/injection, schedule: Q01DX009 (ip), vehicle: Klucel (hydroxypropylcellulose) (HPC) 96 % of control | [14] 95 % of control | [15] 106 % of control | [16] 110 % of control | [17] 90 % of control

CCCc1cc(CCC)n2nc(N)nc2n1
inactive: dose: 50.0 mg/kg/injection, schedule: Q01DX009 (ip), vehicle: saline with Tween-80 100 % of control | [18] 98 % of control | [19] 96 % of control

O=C([O][Sb]([O]C(=O)C(F)(F)F)([c]1ccccc1)([c]1ccccc1)[c]1ccccc1)C(F)(F)F
inactive: dose: 100.0 mg/kg/injection, schedule: Q01DX001 (ip), vehicle: saline with Tween-80 99 % of control | dose: 200.0 mg/kg/injection, schedule: Q01DX001 (ip), vehicle: saline with Tween-80 92 % of control

CCN1CCN2C(=O)OCC2C1 (stereo unspecified)
inactive: dose: 100.0 mg/kg/injection, schedule: Q04DX003 (sc), vehicle: olive oil, sesame oil, peanut oil 94 % of control | dose: 200.0 mg/kg/injection, schedule: Q04DX003 (sc), vehicle: olive oil, sesame oil, peanut oil 97 % of control | dose: 400.0 mg/kg/injection, schedule: Q04DX003 (sc), vehicle: olive oil, sesame oil, peanut oil 92 % of control

Nc1ccccn1
inactive: dose: 12.5 mg/kg/injection, schedule: Q04DX002 (ip), vehicle: saline 100 % of control | [7] 89 % of control

CCC1CN2N=Cc3ccccc3C2=N1 (stereo unspecified)
inactive: [20] 105 % of control | [21] 103 % of control

CN(C)CCOC(=O)c1ccc(N)cc1
inactive: [11] 96 % of control | [22] 98 % of control

COC(=O)C1=C(O)CCCC=C1C(=O)O
inactive: [1] 100 % of control | [2] 103 % of control | [3] 103 % of control

O=C(c1c(F)c(F)c(F)c(F)c1F)N1CC1
inactive: dose: 25.0 mg/kg/injection, schedule: Q01DX009 (ip), vehicle: water 96 % of control | dose: 50.0 mg/kg/injection, schedule: Q01DX009 (ip), vehicle: water 93 % of control

C/C=C(\Br)C(=O)N1CCCCC1
inactive: [10] 94 % of control | [12] 100 % of control | [13] 95 % of control

CC1(C)N=C(N)N=C(N)N1c1cccc(OCc2cccc(NC(=O)CBr)c2)c1
inactive: dose: 5.0 mg/kg/injection, schedule: Q01DX001 (ip), vehicle: saline 106 % of control | [20] 103 % of control | [21] 103 % of control | dose: 40.0 mg/kg/injection, schedule: Q01DX001 (ip), vehicle: saline 97 % of control

S=C(N/N=C1\C=Cc2ccccc2C1)N/N=C1\C=Cc2ccccc2C1
inactive: [10] 92 % of control | [12] 95 % of control | [13] 95 % of control

COc1ccc2c3c(ccc2c1)NC(C(=O)O)CC3 (stereo unspecified)
inactive: [14] 97 % of control | [16] 96 % of control | dose: 400.0 mg/kg/injection, schedule: Q01DX009 (ip), vehicle: Klucel (hydroxypropylcellulose) (HPC) 96 % of control

COc1ccc2c(c1)CCC1C2CCC2(C)C(=O)C(SC3=NC=NC4=NC=NC43)CC12 (stereo unspecified)
inactive: [4] 97 % of control | [5] 96 % of control | [6] 111 % of control

CC1CC(=O)Nc2ccccc2N1 (stereo unspecified)
inactive: [15] 97 % of control | [17] 100 % of control | [23] 103 % of control

CC[N+]1=NC2CCCC(C2)C1 (stereo unspecified)
inactive: [9] 96 % of control | dose: 100.0 mg/kg/injection, schedule: Q01DX009 (ip), vehicle: saline 86 % of control | [11] 101 % of control | dose: 200.0 mg/kg/injection, schedule: Q01DX009 (ip), vehicle: saline 90 % of control | [22] 95 % of control

CSCCC(NC(=O)c1ccccc1)C(=O)O (stereo unspecified)
inactive: [15] 94 % of control | [17] 92 % of control | [23] 94 % of control

Nc1nc(Cl)nc2c1ncn2C1CC(O)C(CO)O1 (stereo unspecified)
inactive: dose: 44.4 mg/kg/injection, schedule: Q01DX001 (ip), vehicle: carboxymethylcellulose (CMC) 118 % of control | dose: 50.0 mg/kg/injection, schedule: Q01DX001 (ip), vehicle: carboxymethylcellulose (CMC) 109 % of control | dose: 66.6 mg/kg/injection, schedule: Q01DX001 (ip), vehicle: carboxymethylcellulose (CMC) 112 % of control | [1] 109 % of control and 118 % of control | [2] 120 % of control and 124 % of control | [3] 102 % of control

O=C(Nc1ccc(Cl)cc1C(F)(F)F)OCCOc1ccc(-c2ccccc2)cc1
inactive: [18] 98 % of control | [19] 96 % of control | dose: 400.0 mg/kg/injection, schedule: Q01DX009 (ip), vehicle: saline with Tween-80 96 % of control
